Test system: Varroa destructor
Experiment: Varroa mite contact test on Potter-tower-treated Petri dishes, mortality after 72 h
Type: in vivo
Details: adult V. destructor, 20 mites (4 dishes of 5), assessed after 72 h
From the text: Varroa mites came from bee colonies provided by a beekeeper. The mite population is kept in a dedicated apiary. For screening needs adults are collected on the same day as the beginning of experiment, either in beehive cells containing brood of worker bees or drones, or directly on bees emerging during collection.
Bee nymphs needed to feed adults of Varroa mites during experiments are choosen within the frames from which Varroa is also collected. They are collected at the stage of nymph with white or pink coloured eyes according methology described by Rembold et Kremer (Characterization of postembryonic developmental stages of the female castes of the honey bee, Apis mellifera L. Apidologie 11: 29-38).
3 cm diameter Petri dishes were used as confinement material of Varroa mites during experiments. Covers with wire mesh were put on the top of each Petri dish in order to avoid the mites to run away but also to keep favorable humidity for the bee nymph. […]
After treatment of Petri dishes, five (5) adults of V. destructor collected from the brood were placed in the petri dish. […] Mortality levels are assessed after 72 h (mites which are able to move their legs are considered as alive). […]

| Compound | % mortality of Varroa (formulation SC240, concentration 1.25 microlitre) [%] | % mortality of Varroa (formulation SC240, concentration 0.8 microlitre) [%] |
| --- | --- | --- |
| CCC(C)(C)C(=O)OC1=C(c2ccc(Cl)cc2Cl)C(=O)OC12CCCCC2 [spirodiclofen, 3-(2,4-dichlorophenyl)-2-oxo-1-oxaspiro[4.5]dec-3-en-4-yl 2,2-dimethylbutyrate] | 100 |  |
| Cc1cc(C)c(C2=C(OC(=O)CC(C)(C)C)C3(CCCC3)OC2=O)c(C)c1 [spiromesifen, 3-mesityl-2-oxo-1-oxaspiro[4.4]non-3-en-4-yl 3,3-dimethylbutyrate] |  | 100 |

— US20130338222A1, “METHODS FOR C[…] MITES” (SYNGENTA CROP PROTECTION LLC, priority 2010, published 2013)
